Experiments:
[1] = Bubble cell test, corrosion rate by linear polarization resistance (LPR); details: 66° C.; for % Protection: 10 ppm CI composition (2 ppm active) with 0.5 ppm 2-mercaptoethanol, versus avg. blank corrosion rate, 22 hour; for Corrosion rate after 22 hour CI injection: 10 ppm CI composition (20% active = 2 ppm active) with 0.5 ppm 2-mercaptoethanol, CO2-saturated synthetic brine 80% / LVT-200 20%, 100 rpm
Description: Examples were conducted to assess the corrosion inhibitors produced in Example 1 using bubble cell tests to assess corrosion performance using linear polarization resistance testing. The corrosion inhibitor was combined with the sulfur synergist 2-mercaptoethanol.
The bubble test simulates low flow areas where little or no mixing of water and oil occurs. The test was conducted using synthetic brine (80% of the brine and 20% of a hydrocarbon containing LVT-200) as shown in Table 1.
The brine was placed into kettles and purged with carbon dioxide resulting in carbon dioxide saturated brine. The brine was continually purged with carbon dioxide at 1 bar CO2 to saturate the brine prior to starting the test for a 2 hour pre-corrode. After the test began, the test cell was blanketed with carbon dioxide one hour prior to electrode insertion and through the duration of the test to maintain saturation. The kettles were stirred at 100 revolutions per minute (rpm) for the duration of the test at 66° C.
The corrosion rate was measured by Linear Polarization Resistance (LPR) techniques. The working electrode used was carbon steel (C1018 grade). The counter and reference electrodes were both 1018 carbon steel. The electrodes were all cleaned and polished prior to testing. Data were collected for 2 hours before 10 ppm of the corrosion inhibitor composition (containing 20% of the reaction product corrosion inhibitor) was added to the hydrocarbon phase, equating to 2 ppm of the active reaction product corrosion inhibitor with 0.5 ppm 2-mercaptoethanol being introduced into the test cell. Data were collected overnight for 22 hour test duration.

[2] = Partitioning test, brine/oil, LC-MS analysis; assay type: physicochemical; details: 50 ppm dosed into oil layer; 50 mL synthetic brine, 25 mL aromatic 150, 25 mL LVT 200; room temperature; 1 hour rest
Description: Additional comparison testing was conducted on the alkyl diquaternary compound corrosion inhibitor of Example 1 (corrosion inhibitor VIa) compared to as conventional quaternary ammonium compounds. Partitioning tests were conducted of the corrosion inhibitor (VIa) and a quaternary ammonium compound (trimethylstearyl benzyl chloride quat) to determine the partitioning coefficient via LC-MS (Liquid Chromatography-Mass Spectroscopy) analysis.
At room temperature, 50 mL of the synthetic brine of Table 1, 25 mL of aromatic 150, and 25 mL of LVT 200 were pipetted into a 125-mL separational funnel. 50 ppm of the corrosion inhibitor (VIa) or trimethylstearyl benzyl chloride quat were dosed into the oil layer of the funnel. The cap was inserted into the funnel and the mixture was shaken vigorously for one minute and then set for an hour. After the hour rest, the bottom layer (brine layer) was drained and collected for LC-MS analysis. LC-MS analysis determines the amount of the corrosion inhibitor (VIa) and trimethylstearyl benzyl chloride quat that partitioned into the brine phase. The amount found in the brine phase was compared to the original amount introduced into the oil phase of the brine/oil solution (50 ppm) and a percentage amount is calculated. The percent amount of the corrosion inhibitor (VIa) and trimethylstearyl benzyl chloride quat present in the brine phase is shown in Table 4.

| Compound | % Protection [1] | Corrosion rate after 22 hour CI injection [1] | % Partitioning to brine phase [2] |
| --- | --- | --- | --- |
| CCCCCCCCCCCCCCCCCC[N+](C)(C)CC(O)C[N+](CCO)(CCO)CCO (stereo not drawn) [VIa] | 99.3% | 1.5 mpy | 84.1% |
| alkyl dimethyl benzyl chloride quat | 99.3% | 1.4 mpy |  |
| trimethylstearyl benzyl chloride quat |  |  | 28.4% |

— patent US20250075126A1, “DIQUATERNARY COMPOUNDS FOR CORROSION INHIBITION AND METHODS OF USE THEREOF” (ChampionX LLC, priority 2023, published 2025)
